Reference: publication PMC6934184, “Selective DNA-PKcs inhibition extends the therapeutic index of localized radiotherapy and chemotherapy” (The Journal of Clinical Investigation, 2019)

Target: T1, FGFR2 (Homo sapiens, UniProt P21802)
T1 construct: purchased Thermo Fisher Scientific (Life Technologies) SelectScreen
Experiment: SelectScreen Z'LYTE
Assay type: biochemical
Method in brief: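 NU5455 was profiled across the SelectScreen Broad panel of kinase activity and binding assays. Z'LYTE reactions such as CSF1R ran at apparent Km ATP, while the Adapta CAMK1 assay used ATP listed as 10. Values are given as percent.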

T1 sequence (P21802 22-821): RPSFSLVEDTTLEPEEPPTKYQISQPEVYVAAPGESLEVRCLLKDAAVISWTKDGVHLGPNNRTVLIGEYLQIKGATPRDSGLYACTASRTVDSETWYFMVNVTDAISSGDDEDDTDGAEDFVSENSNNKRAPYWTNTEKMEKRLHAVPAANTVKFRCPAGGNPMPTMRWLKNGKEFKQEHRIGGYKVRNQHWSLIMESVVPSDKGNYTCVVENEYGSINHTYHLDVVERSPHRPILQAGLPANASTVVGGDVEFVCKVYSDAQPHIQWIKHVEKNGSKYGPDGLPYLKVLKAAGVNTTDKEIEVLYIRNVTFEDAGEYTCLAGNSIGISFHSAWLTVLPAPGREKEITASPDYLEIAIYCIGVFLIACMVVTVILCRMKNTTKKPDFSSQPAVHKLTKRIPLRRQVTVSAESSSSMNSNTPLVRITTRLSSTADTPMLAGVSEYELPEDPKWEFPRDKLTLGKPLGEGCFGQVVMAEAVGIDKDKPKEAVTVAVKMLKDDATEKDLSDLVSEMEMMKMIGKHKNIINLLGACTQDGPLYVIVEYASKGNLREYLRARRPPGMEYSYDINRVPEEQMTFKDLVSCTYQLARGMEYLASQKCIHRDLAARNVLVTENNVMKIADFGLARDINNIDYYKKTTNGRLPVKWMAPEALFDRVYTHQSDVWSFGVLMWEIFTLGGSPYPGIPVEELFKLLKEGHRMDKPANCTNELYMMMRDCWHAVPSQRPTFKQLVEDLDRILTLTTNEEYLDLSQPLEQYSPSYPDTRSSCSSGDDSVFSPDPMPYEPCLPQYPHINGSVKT

Compound: CN(C(=O)CN1CCOCC1)c1ccc2sc3c(-c4cccc5c(=O)cc(N6CC7CCC(C6)O7)oc45)cccc3c2c1 [NU5455]
- inhibition at 1 µM: 0%
